Results: US20100204151A1, “USE OF A PEPTIDE AS A THERAPEUTIC AGENT” (priority 2007, published 2010)

System: drug-resistant Mycobacterium tuberculosis
Details: peptide 10 micrograms per ml, seven days

Ac-HWAVGHL-NH2 [Acetyl-GRP (20-26), Ac-His-Trp-Ala-Val-Gly-His-Leu-NH2]
% inhibition: 0.0%
